Data taken from patent US20240108570A1, “METHOD AND COMPOSITION FOR DELIVERING A COMPOUND THROUGH A BIOLOGICAL BARRIER” (priority 2012, published 2024).

Columns and labels:
[1] = system: ex vivo pig skin; format: in vitro ADME
Method: FIG. 12 represents comparison of delivery of sodium fluorescein to ex vivo pig skin. Pig skin was sourced and prepared for drug treatment as described for FIG. 10. For EMP delivery, 50 μL of the payload solution (1 mg/mL sodium fluorescein) was gently mixed with or without 5 mg of either the ‘short’ or ‘long’ EMP preparations. The samples were then scraped onto the surface of the skin. Administration was achieved by massaging the solution for 30 s using small circular motions within a 3 cm 2 circular area. To maintain consistency between administrations, a small hand-held applicator was designed resulting in an application force of 0.25 N (as described in AU2012905650). After administration, the payload was left on the skin for 5 min followed by removal of excess solution with cotton swabs. The centre of the application area was excised using a 6 mm circular punch biopsy. A total of 6 samples were done per group. Each sample was stored at −20° C. prior to analysis. […] FIG. 12d represents fluorescence confocal microscopy mosaic images of the pig skin with topical application of sodium fluorescein only (no EMP). […] The images in FIGS. 12d to 12l have been pseudo-colored in greyscale, where black corresponds to 0 (min) fluorescence intensity and white corresponds to 255 (max) fluorescence intensity, as shown on the scale superimposed on FIG. 12l.

[2] = system: vaginal tracts of mice; details: mouse, in vivo
Method: In these in vivo mouse experiments, a 10 μl quantity of sodium fluorescein (1 mg/ml) was pipetted into the vaginal tracts of mice. In one group of mice, dye application occurred only after prior application of a small quantity of EMP (5 mg). The dye solution was gently massaged with a rod-like applicator. Vaginal tracts were removed at sacrifice and mounted for cryosectioning.

[3] = system: volar forearm skin of human volunteers; details: in vivo
Source text: In both Examples 4 and 5, elongate microparticles (EMPs) were fabricated from silicon using deep reactive ion etching. Lithography was used to pattern a silicon wafer that was then coated with SU-8 photoresist. After a post exposure bake, the resist was developed in […]. The SU8 structures remaining served as a physical mask during etching, which were etched using a Bosch process. The etched EMPs were washed three times in acetone, followed by three washes in 100% ethanol and lastly three times in distilled water. Prior to application the EMPs were removed from the silicon wafer.
The ability of silicon EMPs of various diameters to penetrate the skin was determined by application of a mixture of sodium fluorescein and EMPs to the volar forearm of four human, healthy volunteers using a plastic applicator as described in provisional patent application AU2012905650. 50 μL of the sodium fluorescein solution having a concentration of 1 mg/mL was mixed with 5 mg of silicon EMPs and applied to the forearm using a gentle massage motion with the applicator. […]
Three different populations of EMPs were used to assess the influence of EMP diameter on penetration and delivery. […] Grouped data was analysed using a one-way ANOVA with a Tukey's multiple comparison test.

[4] = system: in vivo pig skin
Method: FIG. 13 represents comparison of delivery of sodium fluorescein to in vivo pig skin. In vivo experiments were conducted on 6 female Landrace weaner pigs weighing approx. 10-15 kg (Centre for Advanced Animal Science, The University of Queensland Gatton Campus, Australia). The pigs were anaesthetized intramuscularly by co-administration of Butorphanol (0.15 mg/kg) and Zoletil (5 mg/kg) followed by intubation with isoflurane to maintain unconsciousness. Following anesthesia the flanks of the pigs were washed with soapy water and patted dry. The flank was then shaved gently using an electric razor. The flank was marked, to separate the application areas (2 cm diameter circles, 2 cm apart). Payload administration and amounts were done using the same parameters as for ex vivo. After all the groups/samples were applied and swabbed, the pig was turned over and the procedure repeated to the other flank (resulting in 12 samples per group). Finally, the pig was culled and the center of the application areas was excised using a 6 mm circular punch biopsy. Each sample was placed on dry-ice followed by storage at −20° C. prior to analysis.

[5] = system: skin of human volunteers; details: in vivo
Method: Mixtures were formed by taking 50 μl of sodium fluorescein dye (1 mg/mL), with or without 5 mg of silica EMP. […] FIG. 18f refers to the sum of the total sodium fluorescein integrated density within the skin. The level of significance was accepted at p<0.05 based on a one-way ANOVA, Tukey's multiple comparison test.

[6] = system: freshly excised, non-diseased human skin; format: in vitro ADME
Method: The results are illustrated in FIGS. 5 to 8.
FIGS. 7 and 8 illustrate the effect of application forces on the penetration of sodium fluorescein in conjunction with ‘long’ EMPs. Measurements were made 15 minutes after application to freshly excised, non-diseased human skin (from female, Caucasian, abdominal plastic surgery patients). […] Application forces of 0.2N, 5N and 10N were all applied using a gloved finger on a scale. The excised skin is place on the scale and the finger is applied to the EMPs/skin until a weight is achieved on the scale corresponding to either 0.2, 5 or 10 N.) All forces are effective in improving penetration of sodium fluorescein into the stratum spinosum. There was an apparent optimum application force of 5N under the conditions of the tests.

[7] = system: excised pig skin
Method: Excised pig ears sourced from a local abattoir were washed with soap and water followed by rinsing. The ears were stored at −20° C. until required. The ears were thawed and then gently shaved to remove excessive hair, then rinsed and pat dried. The ventral side of the ear was then separated from the cartilage using a scalpel. The excised skin was pinned down on a cork-board maintaining slight tension across the surface. For EMP delivery, 50 μL of the payload solution (1 mg/mL sodium fluorescein, 0.01 mCi/mL vitamin A or 0.01 mCi/mL, vitamin B3 respectively) was gently mixed with 5 mg of either the ‘short’ or ‘long’ EMP preparations. The samples were then scraped onto the surface of the skin.
Administration was achieved by massaging the payload mixture for 30 s using small circular motions within a 3 cm 2 circular area. […] After administration, the payload was left on the skin for 5 min followed by removal of excess solution with cotton swabs. The center of the application area was excised using a 6 mm circular punch biopsy. A total of 6 samples were done per group. Each sample was stored at −20° C. prior to analysis.
The integrated density of sodium fluorescein is directly related to the concentration of the drug within the skin. […] In this case, skin was pinned out taut on a cork board, epidermal side uppermost. Tritiated compound was applied to the skin surface and left for 15 minutes. […]

[8] = system: excised human skin
Method: Both ex vivo and in vivo tissue samples were analysed en face using fluorescence (excited at 488 nm) and reflectance (excited at 750 nm) confocal microscopy (Vivascope® 1500 Multilaser, Lucid Inc., USA). The microscope also consisted of a dermatoscope, which was used to image and position the skin prior to microscopy. The samples were optically sectioned at 1.5 μm intervals from the surface of the skin down to a depth of 150 μm. Each optical slice consisted of a focal area of 500×500 μm^2.
In relation to the sodium fluorescein signal, an area 300×300 μm^2 in size was selected in the center of the image and the raw integrated density was measured throughout the entire stack. The data were then divided by the analysed area (9000 μm^2) resulting in the sodium fluorescein integrated density per μm^2.
A mixture was formed of by taking 50 μl of sodium fluorescein dye (1 mg/mL) and mixed with or without 5 mg of silica EMP This mixture was applied to previously frozen or freshly excised human skin under varying conditions of EMP length and/or application force.
The skin was stored at −20° C. and then brought to room temperature prior to use. […] It is measured by dividing the sodium fluorescein pixel intensity achieved with EMPs by the sodium fluorescein pixel intensity achieved without EMPs. […]

`O=C([O-])c1ccccc1-c1c2ccc(=O)cc-2oc2cc([O-])ccc12.[Na+].[Na+]` [sodium fluorescein] was tested, and the “fluorescence detected below the surface of the skin” value [1] was “minimal fluorescence”, the “penetration depth within the epithelium” value [2] was “about 60 μm” and the “penetration depth within the epithelium relative to delivery in the absence of EMP” value [2] was “more than 4 times”. For the same compound, the “amount of sodium fluorescein detected” value [3] was “no significant difference”, the “fluorescence detected below the surface of the skin” value [4] was “Minimal fluorescence” and the sodium fluorescein signal [4] was “greater signal”. For the same compound, the “penetration of topically applied sodium fluorescein” value [5] was “more lasting and deeper penetration”, the “increase in delivery of sodium fluorescein dye across the stratum corneum” value [6] was “several-fold increase” and the “enhancement of penetration of sodium fluorescein” value [7] was “superior ability”. For the same compound, the “amount of sodium fluorescein penetrated (into the stratum spinosum)” value [8] was “greatest amount” and the “transdermal delivery of sodium fluorescein dye” value [8] was “greatly enhance”.
